Measurements as given in paper PMC5218480 (PLoS ONE, 2017).

Tested on: MV-4-11 cells
Assay: Gene expression microarray analysis (Affymetrix PrimeView) and GSEA
Assay type: cell-based, human
Design: RFU PODN (11730768_x_at) / Fold change /veh PODN (11730768_x_at) / RFU LINC00158 (11744669_a_at) / Fold change /veh LINC00158 (11744669_a_at) / RFU DUSP10 (11751237_a_at) / Fold change /veh DUSP10 (11751237_a_at) / RFU ID3 (11757404_x_at) / Fold change /veh ID3 (11757404_x_at) / RFU PLEKHG5 (11737974_s_at) / Fold change /veh PLEKHG5 (11737974_s_at) / RFU LRRC4B (11730491_at) / Fold change /veh LRRC4B (11730491_at) / RFU GIMAP4 (11747438_a_at) / Fold change /veh GIMAP4 (11747438_a_at) / RFU KRT8 (11758183_x_at) / Fold change /veh KRT8 (11758183_x_at) / RFU CNN1 (11734310_a_at) / Fold change /veh CNN1 (11734310_a_at) / RFU VPS37D (11726825_at) / Fold change /veh VPS37D (11726825_at) / RFU C10orf10 (11716522_x_at) / Fold change /veh C10orf10 (11716522_x_at) / RFU KIR2DL2 /// KIR2DL4 /// KIR2DL5A /// KIR2DL5B /// KIR2DS1 /// KIR2DS2 /// KIR2DS3 /// KIR2DS4 /// KIR3DL3 /// KIR3DL3 /// KIR3DS1 (11738374_at) / Fold change /veh KIR2DL2 /// KIR2DL4 /// KIR2DL5A /// KIR2DL5B /// KIR2DS1 /// KIR2DS2 /// KIR2DS3 /// KIR2DS4 /// KIR3DL3 /// KIR3DL3 /// KIR3DS1 (11738374_at) / RFU C1QL1 (11718748_at) / Fold change /veh C1QL1 (11718748_at) / RFU TMPRSS4 (11747572_a_at) / Fold change /veh TMPRSS4 (11747572_a_at) / RFU HAMP (11756126_x_at) / Fold change /veh HAMP (11756126_x_at) / RFU RNFT2 (11725882_a_at) / Fold change /veh RNFT2 (11725882_a_at) / RFU NR4A2 (11747474_a_at) / Fold change /veh NR4A2 (11747474_a_at) / RFU ABCC12 (11746883_a_at) / Fold change /veh ABCC12 (11746883_a_at) / RFU TMEM136 (11760407_x_at) / Fold change /veh TMEM136 (11760407_x_at) / RFU CLDN22 /// WWC2 (11732394_at) / Fold change /veh CLDN22 /// WWC2 (11732394_at) / RFU HLA-DPB1 (11760878_x_at) / Fold change /veh HLA-DPB1 (11760878_x_at) / RFU SPINT1 (11716480_a_at) / Fold change /veh SPINT1 (11716480_a_at) / RFU GAP43 (11754022_s_at) / Fold change /veh GAP43 (11754022_s_at) / RFU A4GNT (11735810_at) / Fold change /veh A4GNT (11735810_at) / RFU PRB3 (11715151_x_at) / Fold change /veh PRB3 (11715151_x_at) / RFU TUBB4B (11761932_at) / Fold change /veh TUBB4B (11761932_at) / RFU CAPN14 (11732068_a_at) / Fold change /veh CAPN14 (11732068_a_at) / RFU TMCC2 (11721928_a_at) / Fold change /veh TMCC2 (11721928_a_at) / RFU IRGQ (11745062_a_at) / Fold change /veh IRGQ (11745062_a_at) / RFU FAM174B (11720279_a_at) / Fold change /veh FAM174B (11720279_a_at) / RFU TMPRSS4 (11748680_a_at) / Fold change /veh TMPRSS4 (11748680_a_at) / RFU FAM212B (11763350_a_at) / Fold change /veh FAM212B (11763350_a_at) / RFU PLEKHG5 (11743358_a_at) / Fold change /veh PLEKHG5 (11743358_a_at) / RFU ZSCAN30 (11745921_a_at) / Fold change /veh ZSCAN30 (11745921_a_at) / RFU CMKLR1 (11741424_a_at) / Fold change /veh CMKLR1 (11741424_a_at) / RFU LOC101060620 /// MAPK8IP1 (11723275_at) / Fold change /veh LOC101060620 /// MAPK8IP1 (11723275_at) / RFU SPTSSB (11747773_x_at) / Fold change /veh SPTSSB (11747773_x_at) / RFU PRSS12 (11739890_at) / Fold change /veh PRSS12 (11739890_at) / RFU BIN1 (11741810_x_at) / Fold change /veh BIN1 (11741810_x_at) / RFU WNT11 (11732464_a_at) / Fold change /veh WNT11 (11732464_a_at) / RFU C10orf10 (11716521_a_at) / Fold change /veh C10orf10 (11716521_a_at) / RFU C5orf56 (11738089_at) / Fold change /veh C5orf56 (11738089_at) / RFU CYB561 (11721691_x_at) / Fold change /veh CYB561 (11721691_x_at) / RFU ANKRD19P (11752326_a_at) / Fold change /veh ANKRD19P (11752326_a_at) / RFU OR2T12 /// OR2T33 /// OR2T8 (11738714_s_at) / Fold change /veh OR2T12 /// OR2T33 /// OR2T8 (11738714_s_at) / RFU VCAN (11748164_a_at) / Fold change /veh VCAN (11748164_a_at) / RFU JSRP1 (11732532_at) / Fold change /veh JSRP1 (11732532_at) / RFU KRTAP10-11 (11738290_x_at) / Fold change /veh KRTAP10-11 (11738290_x_at) / RFU MYO3A (11730013_a_at) / Fold change /veh MYO3A (11730013_a_at) / RFU EBF3 (11725865_a_at) / Fold change /veh EBF3 (11725865_a_at) / RFU CAMK2N1 (11719241_x_at) / Fold change /veh CAMK2N1 (11719241_x_at) / RFU C5orf56 (11738088_a_at) / Fold change /veh C5orf56 (11738088_a_at) / RFU OLFML3 (11715873_a_at) / Fold change /veh OLFML3 (11715873_a_at) / RFU LOC100653217 /// NTM (11731650_a_at) / Fold change /veh LOC100653217 /// NTM (11731650_a_at) / RFU MAPK11 (11762145_a_at) / Fold change /veh MAPK11 (11762145_a_at) / RFU FIZ1 (11724087_x_at) / Fold change /veh FIZ1 (11724087_x_at) / RFU OASL (11726364_x_at) / Fold change /veh OASL (11726364_x_at) / RFU SOX15 (11748057_x_at) / Fold change /veh SOX15 (11748057_x_at) / RFU CD79A (11719716_a_at) / Fold change /veh CD79A (11719716_a_at) / RFU HIST1H1D (11736915_at) / Fold change /veh HIST1H1D (11736915_at) / RFU CASKIN2 (11723855_a_at) / Fold change /veh CASKIN2 (11723855_a_at) / RFU LOC730098 (11760151_x_at) / Fold change /veh LOC730098 (11760151_x_at) / RFU OR4N2 (11742367_at) / Fold change /veh OR4N2 (11742367_at) / RFU PRRT2 (11749266_a_at) / Fold change /veh PRRT2 (11749266_a_at) / RFU SNX32 (11753110_a_at) / Fold change /veh SNX32 (11753110_a_at) / RFU CDHR5 (11726645_a_at) / Fold change /veh CDHR5 (11726645_a_at) / RFU RCAN1 (11760418_a_at) / Fold change /veh RCAN1 (11760418_a_at) / RFU FAM167A (11723789_a_at) / Fold change /veh FAM167A (11723789_a_at) / RFU FAM26E (11764081_at) / Fold change /veh FAM26E (11764081_at) / RFU ISYNA1 (11749810_s_at) / Fold change /veh ISYNA1 (11749810_s_at) / RFU ACY1 (11761880_at) / Fold change /veh ACY1 (11761880_at) / RFU 11764098_at / Fold change /veh 11764098_at / RFU SAMD14 (11745864_x_at) / Fold change /veh SAMD14 (11745864_x_at) / RFU NPB (11741838_a_at) / Fold change /veh NPB (11741838_a_at) / RFU TMPRSS6 (11731388_a_at) / Fold change /veh TMPRSS6 (11731388_a_at) / RFU KRTAP10-2 (11738614_at) / Fold change /veh KRTAP10-2 (11738614_at) / RFU ARHGAP8 /// PRR5-ARHGAP8 (11727945_x_at) / Fold change /veh ARHGAP8 /// PRR5-ARHGAP8 (11727945_x_at) / RFU KRTAP5-7 /// NADSYN1 (11734609_at) / Fold change /veh KRTAP5-7 /// NADSYN1 (11734609_at) / RFU RASL12 (11751679_a_at) / Fold change /veh RASL12 (11751679_a_at) / RFU CDKN2B (11736163_a_at) / Fold change /veh CDKN2B (11736163_a_at) / RFU PRF1 (11729649_at) / Fold change /veh PRF1 (11729649_at) / RFU, ZNF638 /// ZNF638-IT1 / Fold change vs veh, ZNF638 /// ZNF638-IT1 / RFU, PANK3 / Fold change vs veh, PANK3 / RFU, SH3YL1 / Fold change vs veh, SH3YL1 / RFU, ZEB2 / Fold change vs veh, ZEB2 / RFU, NRIP1 / Fold change vs veh, NRIP1 / RFU, PTTG1IP / Fold change vs veh, PTTG1IP / RFU, CAPN2 / Fold change vs veh, CAPN2 / RFU, MED14 / Fold change vs veh, MED14 / RFU, SNORA58 / Fold change vs veh, SNORA58 / RFU, C1orf63 / Fold change vs veh, C1orf63 / RFU, LRRFIP1 / Fold change vs veh, LRRFIP1 / RFU, NDUFAF7 / Fold change vs veh, NDUFAF7 / RFU, SLC12A2 / Fold change vs veh, SLC12A2 / RFU, IBTK / Fold change vs veh, IBTK / RFU, ESF1 / Fold change vs veh, ESF1 / Fold change vs veh, TMEM50B / RFU, TAOK1 / Fold change vs veh, TAOK1 / RFU, ACBD3 / Fold change vs veh, ACBD3 / RFU, TMA16 / Fold change vs veh, TMA16 / RFU, RWDD3 / Fold change vs veh, RWDD3 / RFU, BCAT1 / Fold change vs veh, BCAT1 / RFU, EDEM3 / Fold change vs veh, EDEM3 / RFU, TMEM33 / Fold change vs veh, TMEM33 / RFU, WDR75 / Fold change vs veh, WDR75 / RFU, AHCTF1 / Fold change vs veh, AHCTF1 / RFU, TFRC / Fold change vs veh, TFRC / RFU, ZDHHC17 / Fold change vs veh, ZDHHC17 / RFU, NOM1 / Fold change vs veh, NOM1 / RFU, ARL8B / Fold change vs veh, ARL8B / RFU, ZBTB11 / Fold change vs veh, ZBTB11 / RFU, TAMM41 / Fold change vs veh, TAMM41 / RFU, KIAA1704 /// LOC100996395 / Fold change vs veh, KIAA1704 /// LOC100996395 / RFU, ING1 / Fold change vs veh, ING1 / RFU, TRMT61B / Fold change vs veh, TRMT61B / RFU, FUBP3 / Fold change vs veh, FUBP3 / RFU, TP53 / Fold change vs veh, TP53 / RFU, TNKS2 / Fold change vs veh, TNKS2 / RFU, ZFP14 / Fold change vs veh, ZFP14 / RFU, ACTR2 / Fold change vs veh, ACTR2 / RFU, PPP3R1 / Fold change vs veh, PPP3R1 / RFU, PIK3R1 / Fold change vs veh, PIK3R1 / RFU, HNRNPA1 / Fold change vs veh, HNRNPA1 / RFU, RNF170 / Fold change vs veh, RNF170 / RFU, ZNF28 / Fold change vs veh, ZNF28 / RFU, RNGTT / Fold change vs veh, RNGTT / RFU, OGT / Fold change vs veh, OGT / RFU, BRD1 / Fold change vs veh, BRD1 / RFU, MARS / Fold change vs veh, MARS / RFU, ZNF655 / Fold change vs veh, ZNF655 / RFU, FAHD1 / Fold change vs veh, FAHD1 / RFU, BDP1 / Fold change vs veh, BDP1 / RFU, LRRCC1 / Fold change vs veh, LRRCC1 / RFU, ARID1A / Fold change vs veh, ARID1A / RFU, ZNF146 / Fold change vs veh, ZNF146 / RFU, ZNF330 / Fold change vs veh, ZNF330 / RFU, GPN3 / Fold change vs veh, GPN3 / RFU, C9orf123 / Fold change vs veh, C9orf123 / RFU, N4BP2L2 / Fold change vs veh, N4BP2L2 / RFU, ARFIP1 / Fold change vs veh, ARFIP1 / RFU, FAM179B / Fold change vs veh, FAM179B / RFU, BCL10 / Fold change vs veh, BCL10 / RFU, UHRF1BP1L / Fold change vs veh, UHRF1BP1L / RFU, BET1 / Fold change vs veh, BET1 / RFU, CNOT2 / Fold change vs veh, CNOT2 / RFU, ZNF268 / Fold change vs veh, ZNF268 / Fold change vs veh, ZNF507 / RFU, DGCR2 / Fold change vs veh, DGCR2 / RFU, WDSUB1 / Fold change vs veh, WDSUB1 / Fold change vs veh, HSP90B1 /// MIR3652 / RFU, ADSS / Fold change vs veh, ADSS / RFU, GK / Fold change vs veh, GK / RFU, ZNF148 / Fold change vs veh, ZNF148 / RFU, TAF9 / Fold change vs veh, TAF9 / RFU, SLC1A5 / Fold change vs veh, SLC1A5 / RFU, SLMO2 / Fold change vs veh, SLMO2 / RFU, ABCC4 / Fold change vs veh, ABCC4 / RFU, LOC101060439 /// RAP1B / Fold change vs veh, LOC101060439 /// RAP1B / RFU, RFX7 / Fold change vs veh, RFX7 / RFU, GTPBP10 / Fold change vs veh, GTPBP10 / RFU, CNEP1R1 / Fold change vs veh, CNEP1R1 / RFU, BIVM-ERCC5 /// ERCC5 / Fold change vs veh, BIVM-ERCC5 /// ERCC5 / RFU, ILF3 / Fold change vs veh, ILF3 / RFU 11762660_at / Fold change /veh 11762660_at / RFU VCAN (11757783_s_at) / Fold change /veh VCAN (11757783_s_at) / RFU DDX43 (11728927_at) / Fold change /veh DDX43 (11728927_at) / RFU KRT8 (11758188_x_at) / Fold change /veh KRT8 (11758188_x_at) / RFU NKD1 (11759106_at) / Fold change /veh NKD1 (11759106_at) / RFU SRD5A1 (11742802_a_at) / Fold change /veh SRD5A1 (11742802_a_at) / RFU TPSAB1 /// TPSB2 (11721975_s_at) / Fold change /veh TPSAB1 /// TPSB2 (11721975_s_at) / RFU GSTM3 (11746129_a_at) / Fold change /veh GSTM3 (11746129_a_at) / RFU IL23R (11737362_x_at) / Fold change /veh IL23R (11737362_x_at) / RFU TMEM51 (11727254_a_at) / Fold change /veh TMEM51 (11727254_a_at) / RFU PIWIL2 (11732686_x_at) / Fold change /veh PIWIL2 (11732686_x_at) / RFU ORM1 (11744905_x_at) / Fold change /veh ORM1 (11744905_x_at) / RFU CCDC152 (11743942_at) / Fold change /veh CCDC152 (11743942_at) / RFU ECM1 (11717891_a_at) / Fold change /veh ECM1 (11717891_a_at) / RFU IL23R (11748794_a_at) / Fold change /veh IL23R (11748794_a_at) / RFU TNFAIP8L3 (11732012_x_at) / Fold change /veh TNFAIP8L3 (11732012_x_at) / RFU MBOAT4 (11741988_at) / Fold change /veh MBOAT4 (11741988_at) / RFU 11764193_at / Fold change /veh 11764193_at / RFU TMEM53 (11763286_at) / Fold change /veh TMEM53 (11763286_at) / RFU MAGEB2 (11727129_at) / Fold change /veh MAGEB2 (11727129_at) / RFU TMEM200A (11744735_a_at) / Fold change /veh TMEM200A (11744735_a_at) / RFU CCDC152 (11751479_a_at) / Fold change /veh CCDC152 (11751479_a_at) / RFU FAM211A (11726209_a_at) / Fold change /veh FAM211A (11726209_a_at) / RFU RGS16 (11746705_a_at) / Fold change /veh RGS16 (11746705_a_at) / RFU VCAN (11755009_s_at) / Fold change /veh VCAN (11755009_s_at) / RFU RHOB (11743442_s_at) / Fold change /veh RHOB (11743442_s_at) / RFU RGS16 (11720943_a_at) / Fold change /veh RGS16 (11720943_a_at) / RFU RGS16 (11720944_at) / Fold change /veh RGS16 (11720944_at) / RFU, VPS4B / Fold change vs veh, VPS4B / RFU, CREB1 / Fold change vs veh, CREB1 / RFU, DNAJC13 / Fold change vs veh, DNAJC13 / RFU, GNAQ / Fold change vs veh, GNAQ / RFU, CDK5R1 / Fold change vs veh, CDK5R1 / RFU, ZRANB3 / Fold change vs veh, ZRANB3 / RFU, CUL4A / Fold change vs veh, CUL4A / RFU, CCNY / Fold change vs veh, CCNY / RFU, UFL1 / Fold change vs veh, UFL1 / RFU, COG3 / Fold change vs veh, COG3 / RFU, DIAPH2 / Fold change vs veh, DIAPH2 / RFU, SKA2 / Fold change vs veh, SKA2 / RFU, AFF3 / Fold change vs veh, AFF3 / RFU, LMF1 / Fold change vs veh, LMF1 / RFU, IPO11 / Fold change vs veh, IPO11 / RFU, DFFB / Fold change vs veh, DFFB / RFU, FOXP1 / Fold change vs veh, FOXP1 / RFU, CARD8 / Fold change vs veh, CARD8 / RFU, STRN3 / Fold change vs veh, STRN3 / RFU, ADK / Fold change vs veh, ADK / RFU, RASSF2 / Fold change vs veh, RASSF2 / RFU, WIPF1 / Fold change vs veh, WIPF1 / RFU, LARP1B / Fold change vs veh, LARP1B / RFU, RASA1 / Fold change vs veh, RASA1 / RFU, RB1 / Fold change vs veh, RB1 / RFU, PPFIA1 / Fold change vs veh, PPFIA1 / RFU, MAT2A / Fold change vs veh, MAT2A / RFU, CCT5 / Fold change vs veh, CCT5 / RFU, WDR92 / Fold change vs veh, WDR92 / RFU, CUX1 / Fold change vs veh, CUX1 / RFU, TTC7A / Fold change vs veh, TTC7A / RFU, TMEM135 / Fold change vs veh, TMEM135 / RFU, DEPTOR / Fold change vs veh, DEPTOR / RFU, CPM / Fold change vs veh, CPM / RFU, DNAJB6 / Fold change vs veh, DNAJB6 / RFU, CACNA2D3 / Fold change vs veh, CACNA2D3 / RFU, DTX4 / Fold change vs veh, DTX4 / RFU, TFCP2 / Fold change vs veh, TFCP2 / RFU, GMCL1 /// GMCL1P1 / Fold change vs veh, GMCL1 /// GMCL1P1 / RFU, AEBP2 / Fold change vs veh, AEBP2 / RFU, SNHG1 /// SNORD22 /// SNORD25 /// SNORD26 /// SNORD27 /// SNORD28 /// SNORD29 /// SNORD31 / Fold change vs veh, SNHG1 /// SNORD22 /// SNORD25 /// SNORD26 /// SNORD27 /// SNORD28 /// SNORD29 /// SNORD31 / Fold change (Aza/veh), C12orf56 (ProbeSet 11735607_a_at) / Fold change (ACY-1035/veh), C12orf56 (ProbeSet 11735607_a_at) / Fold change (Aza/veh), FGFR1OP (ProbeSet 11751329_s_at) / Fold change (ACY-1035/veh), FGFR1OP (ProbeSet 11751329_s_at) / Fold change (Aza/veh), VPS36 (ProbeSet 11739960_a_at) / Fold change (ACY-1035/veh), VPS36 (ProbeSet 11739960_a_at) / RFU SYPL1 (11715823_x_at) / Fold change /veh SYPL1 (11715823_x_at) / RFU IGFBP7 (11715501_s_at) / Fold change /veh IGFBP7 (11715501_s_at) / RFU REEP3 (11722064_at) / Fold change /veh REEP3 (11722064_at) / RFU IGLL1 (11728026_x_at) / Fold change /veh IGLL1 (11728026_x_at): dose or concentration left out as unconfirmed
Settings: ProbeSet 11763166_a_at; LIST B

Compound: Nc1ncn([C@@H]2O[C@H](CO)[C@@H](O)[C@H]2O)c(=O)n1 [azacitidine]
- RFU, MARS: 35.99 RFU
